Laboratory results reported in patent US20180353524A1, “CANCER TREATMENT USING 2-DEOXY-2-FLUORO-L-FUCOSE IN COMBINATION WITH A CHECKPOINT INHIBITOR” (SEATTLE GENETICS, INC., priority 2015, published 2018).

Legend:
[1] = test system: ZAP70; test: TCR signaling, pZAP70 western blot in CD3/CD28 activated T-cells; format: cell-based, human; details: CD3/CD28 bead activation 0-4 h, pZAP70 normalized to ZAP70
Protocol: Purified T-cells were plated in 6-well plates (2.5×10^6 cells/well, 2.5 mL T-cell medium) and were activated with CD3/CD28 beads (20 μL beads/well, Miltenyi Biotec, San Diego, Calif.) at 37 ° C. for 0-4 h. At the indicated time, samples were then harvested, washed in PBS, lysed with RIPA buffer (Thermo Scientific, containing DNAse and protease/phosphatase inhibitors), and snap frozen on dry ice followed by storage at −80 ° C. Cell lysates (˜3 μg/sample determined by BCA assay) were run on SDS-PAGE and examined by western blot on nitrocellulose membranes with anti-pZAP70 antibody (Cell Signaling Technologies). Briefly, blots were blocked for 1 h at room temperature in 5% milk in TBST (TBST from Cell Signling Technologies), rinsed with TBST and then incubated with primary antibody (anti-pZAP70 1:1000 in 5% BSA in TBST) at 4 ° C. overnight. Blots were washed 3× with TBST and probed with HRP-conjugated secondary antibodies for 1 hr at RT (1:2000 in 5% non-fat milk in TBST) followed by washing (3×TBST) and detection using Cell Signaling Elite ECL as per manufacturer instructions. Blots were scanned using an Amersham™ 600 imager (GE Healthcare). Once imaged, blots could be stripped and reprobed for additional markers using other primary antibodies. […]

[2] = test system: Galectin-3; test: Activated T-cell expression of Galectin-3 (FACS); format: cell-based, human; details: CD3/CD28 activated T-cells, overnight
Protocol: Purified T-cells were plated in 12-well plates (10^6 cells/well, 1-2 mL T-cell medium) and were activated with CD3/CD28 beads (4 μL beads/2 mL media, Miltenyi Biotec). Cells were incubated at 37° C. overnight and were then analyzed for Galectin-3 expression after fixation and permeabilization followed by FACS analysis.

[3] = test system: regulatory T-cells; test: Regulatory T-cell and FOXp3 analysis in T-cell cultures (FACS); format: cell-based, human; details: T-cell culture
Protocol: Regulatory T-cells in cultures were identified using the Human Regulatory T-cell Cocktail (BD Pharmingen™) and analyzed using FACS. Briefly, cells were washed into BD stain buffer (BSA) with human Fc block (EMD Millipore) and incubated on ice for 30 min. Cells were then stained with fluorescently labeled Human Regulatory T-cell Cocktail (BD Pharmingen™, 1:100 in BD stain buffer (BSA)) or with appropriate isotype controls (ice, dark, 40 min). Cells were then washed twice in BD stain buffer (BSA) and analyzed on an LSRII flow cytometer. Regulatory T-cells were identified as CD4+, CD25+ and CD127 LOW.
T-cells were prepared in the same manner as for intracellular staining as above, where they were fixed and permeabilized and stained with an anti-FOXp3 antibody (BD Biosciences) and analyzed by FACS. In brief, after incubation in BD stain buffer (FBS) with Human Fc block (Miltenyi Biotec) on ice for 30 min as described previously, cells were stained with anti-CD4 antibody for 20 min in the dark (RT). An equal volume of BD stain buffer (FBS) was added and samples were spun and washed once in BD stain buffer (FBS) followed by resuspension in cold BD Cytofix™ fixation buffer for 30 min at RT. Cells were pelleted washed twice in BD stain buffer (FBS), resuspended, and incubated in BD Perm/Wash™ buffer at RT for 30 min. […]

[4] = test system: dendritic cells; test: DC markers in co-cultures of T-cells and DCs (FACS); format: cell-based, human
Protocol: T-cells were isolated from 10 mL of whole blood which was centrifuged first at 1200 rpm (300×g) for 10 min (without brakes). The top layer containing platelets was removed carefully without disrupting the white blood cell layer. Then RosetteSep™ Human T-Cell Enrichment Cocktail (Pan T-cells from StemCell technologies, Vancouver, BC) was added to the remaining blood (500 μL/10 mL blood). This was incubated for 20 min and then 1 mL FBS was added along with 10 mL PBS. Histopaque (20-25 mL) placed in a 50 mL Falcon the prepared blood/PBS solution was overlaid very slowly. This was centrifuged with no brake (25° C., 1500 rpm, 25 min). The top layer was removed and the T-cells in the buffy coat layer were then removed to a new 50 mL tube. The T-cells were washed with PBS, resuspended in 1 mL ACK lysis buffer and topped up to 25 mL, incubated for 5 min, brought up to 50 mL with PBS, and then pelleted. This red blood cell lysis step was repeated a second time.
PBMCs were isolated similarly to the T-cells, except that 90 mL of blood were used and after the removal of platelets the RosetteSep™ Human T-Cell Enrichment Cocktail was not added, instead an equal volume of PBS (90 mL) was added before overlaying on Histopaque. Centrifugation over Histopaque as above results in PBMC-containing buffy coat.
DCs (20000-30000/well) and 10 times as many T-cells were plated in each well in a total of 200 μL/well in DC medium. Co-cultures were incubated 24 h after which cells evaluated for DC maturation markers as described below.
Transwell assays were performed in 24-well plates. Co-cultures were plated out as described above with the final volume per well of 500 μL. For the transwell samples DCs were plated in the well and T-cells placed into the insert. The cells were then incubated 24 h and examined in the same manner as co-cultures without transwells.
DCs were grown as described until day 8 when there were split into two flasks, one with normal media and the other in serum free media. While no serum was present, X-VIVO™ 15 media contains growth factors which help maintain the health of the cultures. The co-culture experiment was performed as above in 48-well plates.
Co-cultures were examined using FACS analysis. After incubation, cells were washed in BD stain buffer (BSA) with Human Fc block (EMD Millipore) and incubated on ice for 30 min. Cells were then stained with fluorescently labeled anti-MHCII, anti-CD86, anti-CD83, and anti-CD40 primary antibodies (BD, 1:100 or 1:50 in BD stain buffer (BSA)) or with appropriate isotype controls (ice, dark, 40 min). Cells were then washed twice in BD stain buffer (BSA) and analyzed on an LSRII flow cytometer.

[5] = test system: CMV reactive human PMBCs; test: In vitro 2FF and anti-PD1 antibody combination in human PBMCs (IFNγ, IL12p70); details: T-cells matured with 100-200 μM 2FF, co-culture with DCs, 5 μg/mL CMV antigen
Protocol: CMV reactive human PMBCs from a CMV positive donor (Astarte™ Biologics) were thawed, plated into a 6-well plate and cultured overnight in DC media (30% DMEM 70% X-vivo+2 mM glutamax+10% ATB serum+1% PS). The following day the supernatant was collected to isolate T-cells and the adhering cells were washed in media and then replenished with 2 mL media supplemented with IL4 (100 ng/μL) and GMCSF (200 ng/μL) per well to differentiate and proliferate the adhering monocytes into DCs. The plate was incubated for 4-5 days and then cells were moved into a T25 flask. Each time the cells were passaged (every 2-3 days) new cytokines were given. The T-cells in the supernatant were isolated using StemSep human T-cell enrichment kit (Stemcell technologies). The T-cells were then resuspended in T-cell media (RPMI+10% Fetal calf serum, 1% PS) and spilt into two T25 flasks (with or without 100-200 μM 2FF). CD3CD28 antibody coated beads (Miltenyi Biotec) (20 μL/flask) were added to activate the T-cells. After 24 h IL2 was added (100 ng/μL). Each time the cells were passaged new IL2 and 2FF were added. […]
IFNγ and IL12p70 in the supernatants from 5 day co-cultures were measured using a Lumenix assay and the concentration of each cytokine was calculated using an internal standard curve.

## C[C@@H]1OC(O)[C@@H](F)[C@H](O)[C@@H]1O (stereo partly drawn) [2-deoxy-2-fluoro-L-fucose]
[1]
  Zap70 phosphorylation in treated T-cells compared to naive cells: significantly more phosphorylated and remains phosphorylated for a longer period of time
[2]
  galectin-3 levels in T-cells: reduction in galectin-3 levels
[3]; CD4+, CD25+, CD127 LOW
  regulatory T-cell populations (percent of total cells): decrease in regulatory T-cell populations
[3]; gated on CD4+
  expression of FOXp3+ in treated T-cells: decreased expression of FOXp3+
[4]; DCs alone, with or without treatment
  DC activation and maturation markers, DCs alone: do not show changes in these markers
[4]; DCs co-cultured 24 h with autologous T-cells expanded with 100-200 μM, serum-containing medium
  DC activation and maturation markers MHCII, CD86, CD83 and CD40 (MFI vs control co-culture): increases in the DC activation and maturation markers MHCII, CD86, CD83 and CD40
[4]; T-cells and DCs separated by transwell inserts
  DC activation and maturation markers, transwell co-culture: do not occur when transwell inserts are used
[4]; serum-free medium (no antigen)
  DC activation and maturation markers, serum-free co-culture: does not provide the same increases
[5]
  antigen specific T cell response (IFNγ, IL12p70) of 2FF matured T-cells vs control cell: elevated antigen specific T cell response
